The text below walks through data of patent US20070224128A1, “Drug adherence monitoring system” (priority 2006, published 2007).

≈ marks a conversion by molar mass, not a printed value. Structures can show the parent of a compound that is named as a salt. Where two headings read alike, the source gives them in different places.

The conditions of series [1]: cited from earlier work.
For series [2] the following is noted: water at 25° C.; cited from earlier work.
Series [3] has as its system rat. The conditions noted are these: 4H; cited from earlier work.
The subject of series [4] is rat. The conditions noted are these: cited from earlier work.
Another series has as its target human recombinant CYP2D6 (Homo sapiens, UniProt P10635). The protocol:
CYP 2D6 inhibition assays were performed by Novascreen (Hanover, Md.). In brief, after 100 μL solution containing the compounds (dextromethorphan or trifluoroethyldextrorphan, concentration ranging from 10^−10 M to 10^−5M) and mixed 50 μL cofactor solution were preincubated in 100 mM potassium phosphate buffer (pH=7.4) for 10 min at 37° C., 50 μL of freshly mixed solution of human recombinant CYP2D6 (1.5 pmole) and AMMC (1.5 μM) was added to each well. The final cofactor concentrations were 1.3 mM NADP^+, 3.3 mM glucose-6-phosphate, 0.4 U/ml glucose-6-phosphate dehydrogenase. Samples were incubated for 45 minutes and the reaction was stopped with 75 μL Tris/acetonitrile stop solution. Quinidine was used as the reference compound. The AMMC metabolite, AMHC, was measured using a fluorescent plate scanner at an excitation wavelength of 390 nm and emission wavelength of 460 nm.

In a further series the test system is human liver microsomes. The experiment in a line: Human liver microsomes assay: trifluoroacetaldehyde captured from headspace, GC/MS. The conditions noted are these: 2 mg/mL human liver microsome, 1 mM trifluoroethyldextrorphan, 1.5 hours, determined as DNPH derivative. On the technique in general: Liver microsomes are vesicles of endoplasmic reticulum, rich in cytochrome P450 enzymes.

human recombinant CYP2D6, sequence (P10635 whole entry): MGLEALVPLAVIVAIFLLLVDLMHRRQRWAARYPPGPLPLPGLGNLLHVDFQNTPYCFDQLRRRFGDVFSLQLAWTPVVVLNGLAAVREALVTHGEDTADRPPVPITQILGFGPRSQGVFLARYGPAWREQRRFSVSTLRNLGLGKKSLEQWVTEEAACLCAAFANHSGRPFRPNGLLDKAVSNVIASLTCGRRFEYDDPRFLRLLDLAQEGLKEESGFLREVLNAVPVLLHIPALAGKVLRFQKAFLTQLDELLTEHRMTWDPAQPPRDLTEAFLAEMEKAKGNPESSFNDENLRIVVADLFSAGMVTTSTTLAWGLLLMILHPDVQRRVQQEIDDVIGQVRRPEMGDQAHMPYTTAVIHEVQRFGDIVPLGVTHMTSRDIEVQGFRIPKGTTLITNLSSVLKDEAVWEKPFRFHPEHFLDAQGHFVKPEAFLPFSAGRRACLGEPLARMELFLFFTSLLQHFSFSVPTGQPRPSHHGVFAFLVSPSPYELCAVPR
Protocol for human liver microsomes: Microsomal incubations were conducted in 1.5 mL polypropylene vials containing 2 mg/mL human liver microsome, 5.2 mM NADP^+, 13.2 mM glucose-6-phosphate, 1.6 U/ml glucose-6-phosphate dehydrogenase, 6.6 mM magnesium chloride and 1 mM trifluoroethyldextrorphan in 100 mM potassium phosphate buffer (pH 7.5). The total volume was 1.5 mL.
LpDNPH S10 cartridges were employed to collect trifluoroacetaldehyde produced from incubation mixture for 1.5 hours through suction generated by a 5 mL syringe. The incubations were performed in triplicate. […]
A Thermo Finnigan Polaris Q Mass Spectrometer (MS) system (consists of a Polaris Q MS, a TRACE GC, and the Xcalibur Data System) was used. […] Negative chemical ionization (NCI) mode was used for identification and quantitation of trifluoroacetaldehyde 2,4-dinitrophenylhydrazone. […]
[^15N4]trifluoroacetaldehyde 2,4-dinitrophenylhydrazone was used as an internal standard for the determination of trifluoroacetaldehyde as its DNPH derivative. Quantitation was performed by selected ion monitoring (SIM) of most intensive fragment ions trifluoroacetaldehyde 2,4-dinitrophenylhydrazone (m/z 182) against the internal standard [^15N4]trifluoroacetaldehyde 2,4-dinitrophenylhydrazone (m/z 185). […]
The fragment ions m/z 182 and 185 were monitored for quantitation. […]

Take `OC(C(F)(F)F)(C(F)(F)F)C(F)(F)F` [R′3]: in series [1] (at 20° C.), the VP is 268 torr. In series [2], the Solubility is listed as 39,200 mg/L.
With `OC(C(F)(F)F)C(F)(F)F` [R′4], the VP is on record as 102 torr in series [1] (at 20° C.) and 159 torr in series [1] (at 25° C.). The Solubility in series [2] is given as 7770 mg/L (≈ 46.2 mM). For the same compound, the “LC50 Inhalation rat” value in the series on rat [3] is 1974 ppm/4H. The “LD50 Oral rat” value in the series with rat [4] is 1040 to 1500 mg/kg.
For the compound `COc1ccc2c(c1)[C@]13CCCC[C@@H]1[C@H](C2)N(C)CC3` [dextromethorphan, Dextromethorphan hydrobromide, reference compound], the “potency to inhibit AMMC metabolism” value at human recombinant CYP2D6 is “similar”.
For `CN1CC[C@@]23CCCC[C@@H]2[C@@H]1Cc1ccc(OCC(F)(F)F)cc13` [trifluoroethyldextrorphan, O-trifluoroethyldextrorphan], the “potency to inhibit AMMC metabolism” value on human recombinant CYP2D6 (human recombinant CYP2D6 1.5 pmole, AMMC 1.5 μM, compounds 10^−10 M to 10^−5 M, 45 minutes, FIG. 5) is given as “similar”. For the same compound, the “trifluoroacetaldehyde captured from the headspace of the microsomal incubation mixture” value in the series with human liver microsomes is 120 ng.

A word on the Solubility: it is the dissolved amount per volume that the medium holds.
